The values below come from PubChem BioAssay AID248 (DTP/NCI, 2004).

Values joined by “and” are separate entries in the source; they are usually repeats but may differ in a detail not shown here. Equal values may be shown once. Toxic doses and inconclusive results are not listed. Square brackets hold non-standard residues; d marks the D form. Peptide text beside a SMILES is read from it. * marks the point of attachment. ξ: configuration not given here. Cbz = O=C(OCc1ccccc1)*; ξA = CC(N)C(=O)O

This assay has as its system L1210 leukemia ip in BDF1 mice, survival T/C. The assay can be described thus: NCI In Vivo Anticancer Drug Screen. Data for tumor model L1210 Leukemia (intraperitoneal) in B6D2F1 (BDF1) mice. The following applies: endpoint: mean survival time, higher = longer survival. An outline of the steps: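 Antitumor effect is assessed in tumor-bearing animals. Survival in the compound arm is compared with a vehicle-dosed control arm and expressed as their quotient.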

Where [1] appears, read: dose: 100.0 mg/kg/injection, schedule: Q01DX009 (ip), vehicle: Klucel (hydroxypropylcellulose) (HPC).
Where [2] appears, read: dose: 100.0 mg/kg/injection, schedule: Q04DX003 (ip), vehicle: Klucel (hydroxypropylcellulose) (HPC).
[3] abbreviates: dose: 200.0 mg/kg/injection, schedule: Q01DX009 (ip), vehicle: Klucel (hydroxypropylcellulose) (HPC).
The mark [4] stands for this setting: dose: 200.0 mg/kg/injection, schedule: Q04DX003 (ip), vehicle: Klucel (hydroxypropylcellulose) (HPC).
The mark [5] stands for this setting: dose: 400.0 mg/kg/injection, schedule: Q01DX009 (ip), vehicle: Klucel (hydroxypropylcellulose) (HPC).
Where [6] appears, read: dose: 100.0 mg/kg/injection, schedule: Q01DX001 (ip), vehicle: saline.
Setting [7] is: dose: 200.0 mg/kg/injection, schedule: Q01DX001 (ip), vehicle: saline.
The mark [8] stands for this setting: dose: 400.0 mg/kg/injection, schedule: Q01DX001 (ip), vehicle: saline.
The mark [9] stands for this setting: dose: 100.0 mg/kg/injection, schedule: Q04DX002 (ip), vehicle: Klucel (hydroxypropylcellulose) (HPC).
Where [10] appears, read: dose: 200.0 mg/kg/injection, schedule: Q04DX002 (ip), vehicle: Klucel (hydroxypropylcellulose) (HPC).
The mark [11] stands for this setting: dose: 400.0 mg/kg/injection, schedule: Q04DX002 (ip), vehicle: Klucel (hydroxypropylcellulose) (HPC).
The mark [12] stands for this setting: dose: 100.0 mg/kg/injection, schedule: Q04DX002 (ip), vehicle: saline with Tween-80.
Setting [13] is: dose: 200.0 mg/kg/injection, schedule: Q04DX002 (ip), vehicle: saline with Tween-80.
Where [14] appears, read: dose: 400.0 mg/kg/injection, schedule: Q04DX002 (ip), vehicle: saline with Tween-80.
[15] abbreviates: dose: 25.0 mg/kg/injection, schedule: Q04DX002 (ip), vehicle: Klucel (hydroxypropylcellulose) (HPC).
The mark [16] stands for this setting: dose: 50.0 mg/kg/injection, schedule: Q04DX002 (ip), vehicle: Klucel (hydroxypropylcellulose) (HPC).

Turning to `COc1ccc(C(=O)CCCCl)cc1`, the T/C under setting [1] is 102 % of control; the T/C under setting [2] was 107 % of control; the T/C under setting [3] is 102 % of control; the T/C under setting [4] was 96 % of control; the T/C under setting [5] is 89 % of control; the T/C (dose: 400.0 mg/kg/injection, schedule: Q04DX003 (ip), vehicle: Klucel (hydroxypropylcellulose) (HPC)) is 102 % of control.
With `CCC/C=C/CC1CCCCC1`, the T/C (dose: 50.0 mg/kg/injection, schedule: Q01DX009 (ip), vehicle: saline) is 97 % of control; the T/C (dose: 100.0 mg/kg/injection, schedule: Q01DX009 (ip), vehicle: saline) is 97 % of control; the T/C (dose: 200.0 mg/kg/injection, schedule: Q01DX009 (ip), vehicle: saline) is 102 % of control.
`CC(C)CC(C)N` (centres undefined): the T/C was 93 % of control (dose: 50.0 mg/kg/injection, schedule: Q04DX003 (ip), vehicle: Klucel (hydroxypropylcellulose) (HPC)); 100 % of control under setting [2]; 96 % of control under setting [4].
As to `CN(C)CN1C(=O)c2ccccc2C1=O`, the T/C reads like this: under setting [1], 103 % of control; under setting [3], 100 % of control; under setting [5], 104 % of control.
In the case of `CC1CCc2nc3ccccc3nc21` (centres undefined), the T/C is, setting by setting: under setting [6], 91 % of control; under setting [7], 97 % of control; under setting [8], 91 % of control.
`CCC(C)c1cc([N+](=O)[O-])cc([N+](=O)[O-])c1SC(=O)N(C)C` (centres undefined): the T/C by setting is: under setting [1], 94 % of control; under setting [3], 97 % of control; under setting [5], 100 % of control.
Take `Cc1ccc(CC2=NC(C)(C)CC(C)O2)cc1` (centres undefined): the T/C reads like this: (dose: 100.0 mg/kg/injection, schedule: Q04DX002 (ip), vehicle: saline) 101 % of control; (dose: 200.0 mg/kg/injection, schedule: Q04DX002 (ip), vehicle: saline) 93 % of control; (dose: 400.0 mg/kg/injection, schedule: Q04DX002 (ip), vehicle: saline) 106 % of control.
`NC(=S)NS(=O)(=O)c1ccc(N)cc1`: the T/C is, setting by setting: (dose: 89.0 mg/kg/injection, schedule: Q01DX001 (ip), vehicle: saline) 97 % of control and 98 % of control; under setting [6], 104 % of control; (dose: 133.0 mg/kg/injection, schedule: Q01DX001 (ip), vehicle: saline) 98 % of control and 104 % of control; under setting [7], 96 % of control and 92 % of control; (dose: 300.0 mg/kg/injection, schedule: Q01DX001 (ip), vehicle: saline) 93 % of control and 102 % of control; under setting [8], 98 % of control.
`O=S(=O)(O)NC1CCCCC1`: the T/C runs as follows: (dose: 25.0 mg/kg/injection, schedule: Q01DX009 (ip), vehicle: acetone) 100 % of control; (dose: 50.0 mg/kg/injection, schedule: Q01DX009 (ip), vehicle: acetone) 100 % of control; (dose: 100.0 mg/kg/injection, schedule: Q01DX009 (ip), vehicle: acetone) 100 % of control; under setting [8], 95 % of control; (dose: 800.0 mg/kg/injection, schedule: Q01DX001 (ip), vehicle: saline) 90 % of control; (dose: 1200.0 mg/kg/injection, schedule: Q01DX001 (ip), vehicle: saline) 86 % of control. In addition, the T/C (dose: 1600.0 mg/kg/injection, schedule: Q01DX001 (ip), vehicle: saline) is 92 % of control.
For the compound `COc1cc(N(CCCl)CCCl)ccc1C=Nc1cc(Cl)ccc1-n1ccnc1`, the T/C is 95 % of control under setting [9], 95 % of control under setting [10] and 87 % of control under setting [11].
Consider `O=C(O)c1ccccc1C1C=CCCC1` (centres undefined), for which the T/C is, setting by setting: under setting [12], 101 % of control; under setting [13], 101 % of control; under setting [14], 104 % of control.
Consider `ONC(=NCc1ccccc1)c1ccccc1`, for which the T/C (dose: 100.0 mg/kg/injection, schedule: Q01DX001 (ip), vehicle: carboxymethylcellulose (CMC)) was 97 % of control and the T/C (dose: 200.0 mg/kg/injection, schedule: Q01DX001 (ip), vehicle: carboxymethylcellulose (CMC)) is 103 % of control.
As to `O=C(COc1cccc(Cl)c1)NCc1ccc(NC(=O)c2cccc(S(=O)(=O)F)c2)cc1`, the T/C was 111 % of control under setting [15], 107 % of control under setting [16] and 100 % of control under setting [9].
Take `OCCNC(c1ccc(Cl)cc1)C(O)c1ccc(Cl)cc1` (centres undefined): the T/C reads like this: (dose: 50.0 mg/kg/injection, schedule: Q01DX001 (ip), vehicle: saline) 98 % of control; under setting [6], 98 % of control; under setting [7], 98 % of control.
As for `OC1CCCC[CH]1[Hg][Cl]` (centres undefined), the T/C (dose: 5.0 mg/kg/injection, schedule: Q01DX001 (ip), vehicle: saline) was 95 % of control.
On to `C1=Cc2ccccc2C(c2ccccn2)c2ccccc21`, for which the T/C reads like this: (dose: 100.0 mg/kg/injection, schedule: Q04DX003 (ip), vehicle: gum acacia) 90 % of control; (dose: 200.0 mg/kg/injection, schedule: Q04DX003 (ip), vehicle: gum acacia) 97 % of control; (dose: 400.0 mg/kg/injection, schedule: Q04DX003 (ip), vehicle: gum acacia) 93 % of control.
Take `CCCCCCCCCCCCCCCC[n+]1ccccc1`: the T/C (dose: 0.12 mg/kg/injection, schedule: Q01DX Z (ip), vehicle: water) is 101 % of control; the T/C (dose: 0.25 mg/kg/injection, schedule: Q01DX Z (ip), vehicle: water) was 101 % of control; the T/C (dose: 0.5 mg/kg/injection, schedule: Q01DX Z (ip), vehicle: water) is 108 % of control; the T/C (dose: 1.0 mg/kg/injection, schedule: Q01DX Z (ip), vehicle: water) is 103 % of control.
For `CC(NC(=O)CNC(=O)OCc1ccccc1)C(N)=O` (stereo not drawn) (Cbz-Gly-[ξA]-NH2), the T/C is 102 % of control (dose: 100.0 mg/kg/injection, schedule: Q04DX003 (ip), vehicle: saline with Tween-80); 101 % of control (dose: 200.0 mg/kg/injection, schedule: Q04DX003 (ip), vehicle: saline with Tween-80); 101 % of control (dose: 400.0 mg/kg/injection, schedule: Q04DX003 (ip), vehicle: saline with Tween-80).
`Cc1cc(=O)oc2c(OC(=O)N(CCCl)CCCl)c(OC(=O)N(CCCl)CCCl)ccc12`: the T/C reads like this: under setting [15], 90 % of control; under setting [16], 94 % of control; under setting [9], 97 % of control; under setting [10], 90 % of control; under setting [11], 103 % of control.
Consider `O=NN(CCCl)C(=O)NCCc1cccc[n+]1[O-]`, for which the T/C by setting is: (dose: 6.25 mg/kg/injection, schedule: Q01DX001 (ip), vehicle: water) 154 % of control; (dose: 12.5 mg/kg/injection, schedule: Q01DX001 (ip), vehicle: water) 184 % of control; (dose: 25.0 mg/kg/injection, schedule: Q01DX001 (ip), vehicle: water) 312 % of control.
As for `CN1CCC(OC(=O)C2CC(=O)N(C)C(=O)C2)CC1`, the T/C is, setting by setting: (dose: 25.0 mg/kg/injection, schedule: Q04DX003 (ip), vehicle: saline) 98 % of control; (dose: 50.0 mg/kg/injection, schedule: Q04DX003 (ip), vehicle: saline) 98 % of control; (dose: 100.0 mg/kg/injection, schedule: Q04DX003 (ip), vehicle: saline) 100 % of control.
On to `COc1n[n+]([O-])c(Cl)c(C)c1[N+](=O)[O-]`, for which the T/C is, setting by setting: under setting [12], 105 % of control; under setting [13], 102 % of control; under setting [14], 96 % of control.
On to `C/C(CCCCCCCCC#N)=N/NC(N)=O`, for which the T/C is, setting by setting: (dose: 100.0 mg/kg/injection, schedule: Q01DX001 (ip), vehicle: Klucel (hydroxypropylcellulose) (HPC)) 103 % of control; (dose: 200.0 mg/kg/injection, schedule: Q01DX001 (ip), vehicle: Klucel (hydroxypropylcellulose) (HPC)) 106 % of control; (dose: 400.0 mg/kg/injection, schedule: Q01DX001 (ip), vehicle: Klucel (hydroxypropylcellulose) (HPC)) 105 % of control.
